Experimental data published in paper PMC7479006, “Effect of high-fat diet on the pharmacokinetics and safety of flumatinib in healthy Chinese subjects” (Cancer Chemotherapy and Pharmacology, 2020).

Tests used:
[1] = parameters: method as in PMID 18024884; conditions: cited from earlier work
[2] = human, in vivo
Method: The subjects were randomized 24 h in advance in one of the two following groups. Group A: at least 10 h after fasting, oral flumatinib administration of 400 mg (2 tablets, day 1, first dose); the washout period was 14 days, half an hour after high-fat diet (timed from the start of diet) oral flumatinib administration of 400 mg (2 tablets, day 15,second dose). Subjects in group B followed the opposite administration sequence from those in group A. In groups A and B, the high-fat diet contained 800 ~ 1000Kcal (about 50% from fat) (meal composition is detailed Table 1).
Blood samples for pharmacokinetic (PK) evaluation were collected at 0 h before the initiation of dosing (pre-dose), and at 0.5, 1, 1.5, 2, 2.5, 3, 4, 5, 6, 8, 10, 12, 24, 48, 72, and 96 h after dosing. Blood samples were centrifuged at 2000g for 10 min at 4 ℃. Centrifugation was completed within 60 min after sample collection. The plasma was stored at − 70 °C for further analysis. Plasma concentrations of flumatinib and its main metabolites (M1 and M3) were determined using liquid chromatography-mass spectrometry (LC–MS/MS) [20].
Phoenix WinNonlin Version 7.0 (Pharsight Corporation, Sunnyvale, CA, USA) software was used to calculate the pharmacokinetic parameters (Tmax, Cmax, AUC0–t, AUC0–∞, t1/2, V/F, CL/F) of flumatinib and its main metabolites using a non-compartmental method (NCA module). Linear Up Log Down trapezoidal method was used for AUC calculation. The BE module of WinNonLin was used to analyze AUC0–t, AUC0–∞, and Cmax of flumatinib in fed and fasting states after logarithmic conversion. The treatment group (fasting, high-fat diet), the treatment sequence (A, B), and treatment phase were fixed effects in the model, and the subjects nested in the sequence were random effects. The adjusted mean difference (fasting/high-fat diet) and its 90% confidence interval estimated by the model, were taken as the negative number to obtain the corresponding PK parameter geometric mean ratio (postprandial/fasting), to estimate its 90% confidence interval, and to evaluate the effect of a high-fat diet on the pharmacokinetics of flumatinib.

[3] = in vivo; cited from earlier work

AUC0–t [2] [ng·h/mL] | Cmax [2] [ng/mL] | Increase of AUC0–t after high-fat diet over fasted state ([2]; po, 400 mg) [fold] | Increase of AUC0–∞ after high-fat diet over fasted state ([2]; po, 400 mg) [fold] | Increase of Cmax after high-fat diet over fasted state ([2]; po, 400 mg) [fold] | Compound | Increase in bioavailability after high-fat diet [1] [%] | Increase in bioavailability after low-fat diet [1] [%] | Metabolite in plasma relative to the parent drug in plasma [3]
 |  |  |  |  | CS(=O)(=O)CCNCc1ccc(-c2ccc3ncnc(Nc4ccc(OCc5cccc(F)c5)c(Cl)c4)c3c2)o1 [lapatinib] | 325 | 167 | 
231 ± 101 | 54.7 ± 25.5 | 1.6 | 1.6 | 1.9 | Cc1ncc(NC(=O)c2ccc(CN3CCNCC3)c(C(F)(F)F)c2)cc1Nc1nccc(-c2cccnc2)n1 [M1, N-desmethyl flumatinib] |  |  | approximately 10%
